Measured values reported in article PMC3316155 (2012).
pKi: −log10 of the molar value.

Assays:
Assay type in all cases: biochemical
[1] = target: T1, PARP-1 [poly(ADP-ribose) polymerase 1] (Homo sapiens, UniProt P09874); test: […]NAD+ automodification assay, single concentration of […]
[2] = target: T1, PARP-1 [poly(ADP-ribose) polymerase 1]; test: […]NAD+ automodification assay, % inhibition at […]; conditions: read-out: % reduction at 1 mM
[3] = target: T1, PARP-1 [poly(ADP-ribose) polymerase 1]; test: Michaelis–Menten kinetics of ADP-ribose incorporation
[4] = target: T1, PARP-1 [poly(ADP-ribose) polymerase 1]; test: […]NAD+ automodification assay with purified PARP-1

T1 sequence (P09874 2-1014): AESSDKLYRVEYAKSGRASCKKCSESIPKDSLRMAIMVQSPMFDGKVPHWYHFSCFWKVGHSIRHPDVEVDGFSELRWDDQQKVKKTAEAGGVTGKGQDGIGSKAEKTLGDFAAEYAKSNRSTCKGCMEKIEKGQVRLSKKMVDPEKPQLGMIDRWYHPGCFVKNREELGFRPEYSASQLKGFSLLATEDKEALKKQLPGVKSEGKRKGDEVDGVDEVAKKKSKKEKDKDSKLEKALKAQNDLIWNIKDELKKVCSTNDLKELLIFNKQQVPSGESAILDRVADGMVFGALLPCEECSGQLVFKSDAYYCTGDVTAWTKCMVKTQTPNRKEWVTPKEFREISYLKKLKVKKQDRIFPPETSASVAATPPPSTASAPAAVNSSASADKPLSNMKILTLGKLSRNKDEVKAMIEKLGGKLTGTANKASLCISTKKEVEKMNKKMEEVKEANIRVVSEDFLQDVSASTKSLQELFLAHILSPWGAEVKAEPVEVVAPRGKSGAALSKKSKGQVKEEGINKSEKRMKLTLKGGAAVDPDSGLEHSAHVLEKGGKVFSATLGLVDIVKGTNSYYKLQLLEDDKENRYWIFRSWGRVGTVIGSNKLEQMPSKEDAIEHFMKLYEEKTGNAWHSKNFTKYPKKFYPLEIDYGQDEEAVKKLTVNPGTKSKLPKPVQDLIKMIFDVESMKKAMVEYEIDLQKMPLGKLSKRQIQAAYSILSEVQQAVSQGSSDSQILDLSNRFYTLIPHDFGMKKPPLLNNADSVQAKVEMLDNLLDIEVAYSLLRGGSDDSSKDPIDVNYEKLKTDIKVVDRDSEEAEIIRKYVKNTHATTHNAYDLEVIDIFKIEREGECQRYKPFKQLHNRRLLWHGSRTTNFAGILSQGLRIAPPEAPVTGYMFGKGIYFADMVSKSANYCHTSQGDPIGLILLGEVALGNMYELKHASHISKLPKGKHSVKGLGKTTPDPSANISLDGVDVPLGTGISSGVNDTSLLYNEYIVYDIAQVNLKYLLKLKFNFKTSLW

Compound: Nc1ncnc2c1ncn2[C@@H]1O[C@H](COP(=O)(O)OP(=O)(O)OC[C@H]2OC(O)[C@H](O)[C@@H]2O)[C@@H](O)[C@H]1O (stereo partly shown) [ADP-ribose]
- [32P]NAD+ automodification assay, single concentration of 50 μM [1]: With the exception of ADP-ribose, other adenine derivatives only inhibited PARP-1 to a limited extent

Compound: Nc1ncnc2c1ncn2[C@@H]1O[C@H](COP(=O)(O)OP(=O)(O)OP(=O)(O)O)[C@@H](O)[C@H]1O [ATP]
- inhibition at 1000 µM [2]: ~25%

Compound: NC(=O)c1ccc[n+]([C@@H]2O[C@H](COP(=O)([O-])OP(=O)(O)OC[C@H]3O[C@@H](n4cnc5c(N)ncnc54)[C@H](O)[C@@H]3O)[C@@H](O)[C@H]2O)c1 [NAD^+]
- Km [3]: 200 to 250 µM

Compound: Nc1ncnc2c1ncn2[C@@H]1O[C@H](COP(=O)(O)O)[C@@H](OP(=O)(O)O)[C@H]1O [pAp]
- pKi [4]: 6.00 to 6.30
